These results are taken from patent publication US20250129070A1, “BIFUNCTIONAL ANDROGEN RECEPTOR COMPOUNDS” (priority 2023, published 2025).

The test system of one test is VCaP cells. Description: VCaP growth inhibition assay. The conditions noted are these: 30 pM R1881, 9 days, CTG. It counts as cell-based. In a few lines:
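Growth read by CTG luminescence after 9-day exposure to compound (final 100 nM–10 fM, 1:5 steps) plus 30 pM R1881, in phenol red-free DMEM with 5% CSS. Cells pre-incubated 72 h before dosing; IC50 by nonlinear 4-parameter regression.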

A further test has as its system AR / CBP ternary complex. Description: Ternary complex formation assay (sandwich ELISA, AR capture / CBP detection) in VCaP cell lysates. The conditions noted are these: 1.5 hours treatment, sandwich ELISA (AR capture, CBP or p300 detection). Format: cell-based. In a few lines: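 Anti-AR (AR 441)-coated plates capture AR from lysates of VCaP cells grown ≥3 days at 50K/well in 5% charcoal-stripped FBS, dosed with bifunctional for 1.5 h and lysed 30 min at 4 °C. Co-captured CBP/p300 is probed with rabbit mAb and HRP anti-rabbit, then QuantaRed fluorescence (570/585) is read at 0, 5 and 15 min.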

For `CC(=O)N1CCc2c(c(N3CCCc4ccc(C(F)F)cc43)nn2C2CC3(C2)CN(C(=O)C2CC4(C2)CN(c2ncc(C(=O)NC5C(C)(C)C(Oc6ccc(C#N)c(Cl)c6)C5(C)C)cn2)C4)C3)C1` (stereo not shown) [Compound 218, 2-[6-[6-[5-acetyl-3-[7-(difluoromethyl)-3,4-dihydro-2H-quinolin-1-yl]-6,7-dihydro-4H-pyrazolo[4,3-c]pyridin-1-yl]-2-azaspiro[3.3]heptane-2-carbonyl]-2-azaspiro[3.3]heptan-2-yl]-N-[3-(3-chloro-4-cyano-phenoxy)-2,2,4,4-tetramethyl-cyclobutyl]pyrimidine-5-carboxamide], the IC50 in the test on VCaP cells was 1 to 100 nM. Also, in the test on AR / CBP ternary complex, the EC50 was > 100 nM.
`CC(=O)N1CCc2c(c(N3CCCc4cc(-c5cnn(C)c5)c(C(F)F)cc43)nn2CCOC2CCN(c3ncc(C(=O)NC4C(C)(C)C(Oc5ccc(C#N)c(Cl)c5)C4(C)C)cn3)CC2)C1` (stereo not shown) [Compound 51, 2-[4-[2-[5-acetyl-3-[7-(difluoromethyl)-6-(1-methylpyrazol-4-yl)-3,4-dihydro-2H-quinolin-1-yl]-6,7-dihydro-4H-pyrazolo[4,3-c]pyridin-1-yl]ethoxy]-1-piperidyl]-N-[3-(3-chloro-4-cyano-phenoxy)-2,2,4,4-tetramethyl-cyclobutyl]pyrimidine-5-carboxamide]: in the test on VCaP cells, the IC50 fell in the range of 0.1 to 1 nM. Further, in the test on AR / CBP ternary complex, the EC50 was < 1 nM.
On the same counts, the results for `COc1cc(OC2C(C)(C)C(NC(=O)c3ccc(N4CCC(N5CCC(n6nc(N7CCCc8cc(-c9cnn(C)c9)c(C(F)F)cc87)c7c6CCN(C(C)=O)C7)CC5)CC4)cc3)C2(C)C)ccc1C#N` (stereo not shown) [Compound 277, 4-[4-[4-[5-acetyl-3-[7-(difluoromethyl)-6-(1-methylpyrazol-4-yl)-3,4-dihydro-2H-quinolin-1-yl]-6,7-dihydro-4H-pyrazolo[4,3-c]pyridin-1-yl]-1-piperidyl]-1-piperidyl]-N-[3-(4-cyano-3-methoxy-phenoxy)-2,2,4,4-tetramethyl-cyclobutyl]benzamide] are ≤ 0.1 nM and < 1 nM.
In the case of `COc1cc(OC2C(C)(C)C(NC(=O)c3ccc(N4CCC(N5CCC(n6nc(N7CCCc8cc(-c9cnn(C)c9)c(C(F)F)cc87)c7c6CCN(C(C)=O)C7)CC5)C(F)(F)C4)cc3)C2(C)C)ccc1C#N` (stereo not shown) [Compound 302, 4-[4-[4-[5-acetyl-3-[7-(difluoromethyl)-6-(1-methylpyrazol-4-yl)-3,4-dihydro-2H-quinolin-1-yl]-6,7-dihydro-4H-pyrazolo[4,3-c]pyridin-1-yl]-1-piperidyl]-3,3-difluoro-1-piperidyl]-N-[3-(4-cyano-3-methoxy-phenoxy)-2,2,4,4-tetramethyl-cyclobutyl]benzamide], the IC50 in the test with VCaP cells was ≤ 0.1 nM. Further, the EC50 in the test with AR / CBP ternary complex is < 1 nM.
Compound `CC(=O)N1CCc2c(c(-c3cccc4cc(-c5cnn(CC6CC7(C6)CN(c6ncc(C(=O)NC8C(C)(C)C(Oc9ccc(C#N)c(Cl)c9)C8(C)C)cn6)C7)c5)ncc34)nn2C)C1` (stereo not shown) [Compound 224, 2-[6-[[4-[8-(5-acetyl-1-methyl-6,7-dihydro-4H-pyrazolo[4,3-c]pyridin-3-yl)-3-isoquinolyl]pyrazol-1-yl]methyl]-2-azaspiro[3.3]heptan-2-yl]-N-[3-(3-chloro-4-cyano-phenoxy)-2,2,4,4-tetramethyl-cyclobutyl]pyrimidine-5-carboxamide] returned an IC50 in the test on VCaP cells of 0.1 to 1 nM. In the test with AR / CBP ternary complex, the EC50 is < 1 nM.
The compound `CC(=O)N1CCc2c(c(N3CCCc4cc(-c5cnn(C)c5)c(C(F)F)cc43)nn2C2CCN(C3CC4(CC(Oc5ncc(C(=O)NC6C(C)(C)C(Oc7ccc(C#N)c(Cl)c7)C6(C)C)cn5)C4)C3)CC2)C1` (stereo not shown) [Compound 385, 2-[6-[4-[5-acetyl-3-[7-(difluoromethyl)-6-(1-methylpyrazol-4-yl)-3,4-dihydro-2H-quinolin-1-yl]-6,7-dihydro-4H-pyrazolo[4,3-c]pyridin-1-yl]-1-piperidyl]spiro[3.3]heptan-2-yl]oxy-N-[3-(3-chloro-4-cyano-phenoxy)-2,2,4,4-tetramethyl-cyclobutyl]pyrimidine-5-carboxamide] registered an IC50 in the test with VCaP cells of 0.1 to 1 nM. The EC50 in the test on AR / CBP ternary complex is < 1 nM.
On the same counts, the results for `COc1cc(OC2C(C)(C)C(NC(=O)c3ccc(N4CCC(CN5CCC(n6nc(N7CCCc8cc(-c9cnn(C)c9)c(C(F)F)cc87)c7c6CCN(C(C)=O)C7)CC5)CC4)cc3)C2(C)C)ccc1C#N` (stereo not shown) [Compound 185, 4-[4-[[4-[5-acetyl-3-[7-(difluoromethyl)-6-(1-methylpyrazol-4-yl)-3,4-dihydro-2H-quinolin-1-yl]-6,7-dihydro-4H-pyrazolo[4,3-c]pyridin-1-yl]-1-piperidyl]methyl]-1-piperidyl]-N-[3-(4-cyano-3-methoxy-phenoxy)-2,2,4,4-tetramethyl-cyclobutyl]benzamide] are ≤ 0.1 nM and < 1 nM.
On the same counts, the results for `CC(=O)N1CCc2c(c(-c3cccc4cc(-c5ccc(C(=O)NC6CCN(c7ncc(C(=O)NC8C(C)(C)C(Oc9ccc(C#N)c(Cl)c9)C8(C)C)cn7)CC6)nc5)ncc34)nn2C2CCOCC2)C1` (stereo not shown) [Compound 180, 2-[4-[[5-[8-(5-acetyl-1-tetrahydropyran-4-yl-6,7-dihydro-4H-pyrazolo[4,3-c]pyridin-3-yl)-3-isoquinolyl]pyridine-2-carbonyl]amino]-1-piperidyl]-N-[3-(3-chloro-4-cyano-phenoxy)-2,2,4,4-tetramethylcyclobutyl]pyrimidine-5-carboxamide] are ≤ 0.1 nM and < 1 nM.
`CC(=O)N1CCc2c(c(N3CCCc4cc(-c5cnn(C)c5)c(C(F)F)cc43)nn2C2CCN(CCOc3ncc(C(=O)NC4C(C)(C)C(Oc5ccc(C#N)c(Cl)c5)C4(C)C)cn3)CC2)C1` (stereo not shown) [Compound 89, 2-[2-[4-[5-acetyl-3-[7-(difluoromethyl)-6-(1-methylpyrazol-4-yl)-3,4-dihydro-2H-quinolin-1-yl]-6,7-dihydro-4H-pyrazolo[4,3-c]pyridin-1-yl]-1-piperidyl]ethoxy]-N-[3-(3-chloro-4-cyano-phenoxy)-2,2,4,4-tetramethyl-cyclobutyl]pyrimidine-5-carboxamide] came in with an IC50 in the test on VCaP cells of 0.1 to 1 nM. Moreover, in the test on AR / CBP ternary complex, the EC50 is < 1 nM.
For `CC(=O)N1CCc2c(c(N3CCCc4cc(-c5cnn(C)c5)c(C(F)F)cc43)nn2C2CCC3(CC2)CCN(CC2CN(c4ccc(C(=O)NC5C(C)(C)C(Oc6ccc(C#N)c(Cl)c6)C5(C)C)nn4)C2)CC3)C1` (stereo not shown) [Compound 209, 6-[3-[[9-[5-acetyl-3-[7-(difluoromethyl)-6-(1-methylpyrazol-4-yl)-3,4-dihydro-2H-quinolin-1-yl]-6,7-dihydro-4H-pyrazolo[4,3-c]pyridin-1-yl]-3-azaspiro[5.5]undecan-3-yl]methyl]azetidin-1-yl]-N-[3-(3-chloro-4-cyano-phenoxy)-2,2,4,4-tetramethyl-cyclobutyl]pyridazine-3-carboxamide] the same measures were ≤ 0.1 nM and 10 to 100 nM.
For `CC(=O)N1CCc2c(c(N3CCCc4cc(-c5cnn(C)c5)c(C)cc43)nn2C2CCN(CC3CCN(c4ncc(C(=O)NC5C(C)(C)C(Oc6ccc(C#N)c(Cl)c6)C5(C)C)cn4)CC3(C)C)CC2)C1` (stereo not shown) [Compound 446, 2-[4-[[4-[5-acetyl-3-[7-methyl-6-(1-methylpyrazol-4-yl)-3,4-dihydro-2H-quinolin-1-yl]-6,7-dihydro-4H-pyrazolo[4,3-c]pyridin-1-yl]-1-piperidyl]methyl]-3,3-dimethyl-1-piperidyl]-N-[3-(3-chloro-4-cyano-phenoxy)-2,2,4,4-tetramethyl-cyclobutyl]pyrimidine-5-carboxamide], the IC50 with VCaP cells fell in the range of 0.1 to 1 nM. The EC50 in the test on AR / CBP ternary complex was < 1 nM.
In turn, `COc1cc(OC2C(C)(C)C(NC(=O)c3ccc(OC4CC5(C4)CC(N4CCC(n6nc(N7CCCc8cc(-c9cnn(C)c9)c(C(F)F)cc87)c7c6CCN(C(C)=O)C7)CC4)C5)cc3)C2(C)C)ccc1C#N` (stereo not shown) [Compound 386, 4-[6-[4-[5-acetyl-3-[7-(difluoromethyl)-6-(1-methylpyrazol-4-yl)-3,4-dihydro-2H-quinolin-1-yl]-6,7-dihydro-4H-pyrazolo[4,3-c]pyridin-1-yl]-1-piperidyl]spiro[3.3]heptan-2-yl]oxy-N-[3-(4-cyano-3-methoxy-phenoxy)-2,2,4,4-tetramethyl-cyclobutyl]benzamide] registered a half-maximal inhibitory concentration (IC50) with VCaP cells of 0.1 to 1 nM. The EC50 in the test with AR / CBP ternary complex was < 1 nM.
For `Cn1c(=O)sc2ccc(N3CCCc4cc(-c5ccc(CCC6CCN(c7ncc(C(=O)NC8C(C)(C)C(Oc9ccc(C#N)c(Cl)c9)C8(C)C)cn7)CC6)nc5)ncc43)cc21` (stereo not shown) [Compound 237, N-[3-(3-chloro-4-cyano-phenoxy)-2,2,4,4-tetramethyl-cyclobutyl]-2-[4-[2-[5-[1-(3-methyl-2-oxo-1,3-benzothiazol-5-yl)-3,4-dihydro-2H-1,7-naphthyridin-6-yl]-2-pyridyl]ethyl]-1-piperidyl]pyrimidine-5-carboxamide] the same measures were 1 to 100 nM and < 1 nM.
On the same counts, the results for `COc1cc(OC2C(C)(C)C(NC(=O)c3ccc(N4CCN(C5CCN(c6ccc(-c7cc8c(cc7C(F)F)N(c7nn(C9CCOCC9)c9c7CN(C(C)=O)CC9)CCC8)cn6)CC5)CC4)cc3)C2(C)C)ccc1C#N` (stereo not shown) [Compound 325, 4-[4-[1-[5-[1-(5-acetyl-1-tetrahydropyran-4-yl-6,7-dihydro-4H-pyrazolo[4,3-c]pyridin-3-yl)-7-(difluoromethyl)-3,4-dihydro-2H-quinolin-6-yl]-2-pyridyl]-4-piperidyl]piperazin-1-yl]-N-[3-(4-cyano-3-methoxy-phenoxy)-2,2,4,4-tetramethyl-cyclobutyl]benzamide] are 0.1 to 1 nM and < 1 nM.
